Measurements: article PMC4842925, “Aristolochic acid, a plant extract used in the treatment of pain and linked to Balkan endemic nephropathy, is a regulator of K2P channels” (British Journal of Pharmacology, 2016)
Numbering of substitutions follows the chain as printed.

How the values were obtained:
Assay in all cases: whole-cell patch clamp, tsA201 cells
Type in all cases: cell-based
hTASK-2 (K2P5.1) [1] = target: T1, hTASK-2 (K2P5.1) (Homo sapiens, UniProt O95279); details: activation; no effect at 100 μM; pH 7.4; 2.5 mM external K; room temperature
T1 construct: gene KCNK5; full-length channel in pcDNA3.1, transiently expressed in tsA201 cells; functional dimer
T1 sequence (O95279 1-499): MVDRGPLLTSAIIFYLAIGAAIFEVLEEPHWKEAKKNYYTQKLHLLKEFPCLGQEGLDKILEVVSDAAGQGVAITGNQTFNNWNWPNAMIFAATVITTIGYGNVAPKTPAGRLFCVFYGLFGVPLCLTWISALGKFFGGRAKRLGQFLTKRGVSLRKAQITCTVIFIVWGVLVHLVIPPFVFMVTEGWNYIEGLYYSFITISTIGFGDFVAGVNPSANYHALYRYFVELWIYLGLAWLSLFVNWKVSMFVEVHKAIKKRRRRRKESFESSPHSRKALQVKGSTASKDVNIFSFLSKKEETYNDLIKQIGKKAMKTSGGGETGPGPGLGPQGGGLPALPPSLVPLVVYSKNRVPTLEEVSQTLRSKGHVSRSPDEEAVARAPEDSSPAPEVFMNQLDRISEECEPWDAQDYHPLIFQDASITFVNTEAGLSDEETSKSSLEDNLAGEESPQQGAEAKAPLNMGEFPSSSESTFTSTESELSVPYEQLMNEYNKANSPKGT

hTRESK (K2P18.1) [2] = target: T2, hTRESK (K2P18.1) (Homo sapiens, UniProt Q7Z418, S252A/S264A)
T2 construct: gene KCNK18; full-length channel in pcDNA3.1, transiently expressed in tsA201 cells; homodimer
T2 sequence (Q7Z418 1-384 S252A/S264A): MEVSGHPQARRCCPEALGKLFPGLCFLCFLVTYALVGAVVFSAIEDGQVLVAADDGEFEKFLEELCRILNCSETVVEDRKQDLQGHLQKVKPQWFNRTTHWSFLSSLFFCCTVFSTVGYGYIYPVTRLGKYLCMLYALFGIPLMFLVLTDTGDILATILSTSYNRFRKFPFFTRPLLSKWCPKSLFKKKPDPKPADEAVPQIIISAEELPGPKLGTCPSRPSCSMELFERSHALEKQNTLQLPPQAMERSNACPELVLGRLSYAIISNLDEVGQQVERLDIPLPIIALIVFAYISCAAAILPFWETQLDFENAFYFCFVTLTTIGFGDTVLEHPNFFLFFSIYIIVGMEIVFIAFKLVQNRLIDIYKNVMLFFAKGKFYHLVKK

hTRESK (K2P18.1) [3] = target: T3, hTRESK (K2P18.1) (Homo sapiens, UniProt Q7Z418)
T3 construct: gene KCNK18; full-length channel in pcDNA3.1, transiently expressed in tsA201 cells; homodimer
T3 sequence (Q7Z418 1-384): T2 sequence (Q7Z418 1-384 S252A/S264A) with A252S, A264S

hTRAAK (K2P4.1) = target: T4, hTRAAK (K2P4.1) (Homo sapiens, UniProt Q9NYG8); details: authors: little effect; difference current between -40 and -80 mV; pH 7.4; 2.5 mM external K; room temperature
T4 construct: gene KCNK4; isoform 2 in pcDNA3.1, transiently expressed in tsA201 cells; homodimer
T4 sequence (Q9NYG8 1-419 isoform Q9NYG8-2): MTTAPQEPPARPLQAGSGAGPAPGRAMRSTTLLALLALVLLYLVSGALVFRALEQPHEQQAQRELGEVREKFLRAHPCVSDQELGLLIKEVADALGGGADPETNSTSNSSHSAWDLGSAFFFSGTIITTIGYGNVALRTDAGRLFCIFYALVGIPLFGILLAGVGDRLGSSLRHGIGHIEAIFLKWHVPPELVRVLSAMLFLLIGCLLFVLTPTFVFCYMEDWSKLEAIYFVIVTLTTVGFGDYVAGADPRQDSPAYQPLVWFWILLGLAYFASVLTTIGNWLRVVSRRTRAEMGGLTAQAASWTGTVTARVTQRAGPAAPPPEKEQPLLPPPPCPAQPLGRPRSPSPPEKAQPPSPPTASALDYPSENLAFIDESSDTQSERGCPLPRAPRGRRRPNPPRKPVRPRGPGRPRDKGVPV

hTREK-2 (K2P10.1) = target: T5, hTREK-2 (K2P10.1) (Homo sapiens, UniProt P57789); details: activation; difference current between -40 and -80 mV; pH 7.4; 2.5 mM external K; room temperature
T5 construct: gene KCNK10; full-length channel in pcDNA3.1, transiently expressed in tsA201 cells; homodimer
T5 sequence (P57789 1-538): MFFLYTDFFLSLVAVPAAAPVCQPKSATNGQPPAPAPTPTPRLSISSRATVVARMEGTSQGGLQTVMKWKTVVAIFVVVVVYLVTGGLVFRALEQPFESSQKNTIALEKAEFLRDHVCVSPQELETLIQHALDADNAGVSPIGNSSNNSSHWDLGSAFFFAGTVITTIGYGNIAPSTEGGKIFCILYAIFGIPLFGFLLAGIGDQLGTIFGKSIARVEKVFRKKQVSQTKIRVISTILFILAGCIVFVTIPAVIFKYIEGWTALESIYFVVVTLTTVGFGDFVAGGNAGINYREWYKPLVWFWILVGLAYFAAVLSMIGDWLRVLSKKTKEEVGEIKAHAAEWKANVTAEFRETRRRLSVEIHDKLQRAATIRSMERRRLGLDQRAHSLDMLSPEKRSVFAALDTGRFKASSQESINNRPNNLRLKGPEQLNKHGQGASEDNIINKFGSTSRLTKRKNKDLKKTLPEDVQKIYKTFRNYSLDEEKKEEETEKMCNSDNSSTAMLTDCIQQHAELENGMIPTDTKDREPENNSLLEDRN

hTRESK (K2P18.1) [4] = target: T6, hTRESK (K2P18.1) (Homo sapiens, UniProt Q7Z418, F145A/F352A)
T6 construct: gene KCNK18; full-length channel in pcDNA3.1, transiently expressed in tsA201 cells; homodimer
T6 sequence (Q7Z418 1-384 F145A/F352A): T2 sequence (Q7Z418 1-384 S252A/S264A) with F145A, A252S, A264S, F352A

hTRESK (K2P18.1) [5] = target: T7, hTRESK (K2P18.1) (Homo sapiens, UniProt Q7Z418, S252E/S264E)
T7 construct: gene KCNK18; full-length channel in pcDNA3.1, transiently expressed in tsA201 cells; homodimer
T7 sequence (Q7Z418 1-384 S252E/S264E): T2 sequence (Q7Z418 1-384 S252A/S264A) with A252E, A264E

hTASK-2 (K2P5.1) [6] = target: T1, hTASK-2 (K2P5.1); details: activation; pH 7.4; 2.5 mM external K; room temperature
hTASK-2 (K2P5.1) [7] = target: T8, hTASK-2 (K2P5.1) (Homo sapiens, UniProt O95279, T108P)
T8 construct: gene KCNK5; full-length channel in pcDNA3.1, transiently expressed in tsA201 cells; functional dimer
T8 sequence (O95279 1-499 T108P): T1 sequence (O95279 1-499) with T108P

| SMILES | % enhancement at 300 μM (hTASK-2 (K2P5.1) [1]) [%] | inhibition at 100 µM (hTRESK (K2P18.1) [2]) [%] | IC50 (hTRESK (K2P18.1) [3]) [µM] | % enhancement at 100 μM (hTRAAK (K2P4.1)) [%] | % enhancement at 100 μM (hTREK-2 (K2P10.1)) [%] | inhibition at 100 µM (hTRESK (K2P18.1) [4]) [%] | inhibition at 100 µM (hTRESK (K2P18.1) [5]) [%] | % enhancement at 100 μM (hTASK-2 (K2P5.1) [6]) [%] | inhibition at 100 µM (hTASK-2 (K2P5.1) [7]) [%] |
| --- | --- | --- | --- | --- | --- | --- | --- | --- | --- |
| COc1cccc2c1cc([N+](=O)[O-])c1c(C(=O)O)cc3c(c12)OCO3 [Aristolochic acid I] | 21 ± 13 | 80 ± 2 | 13 ± 2 | 8 ± 5 | 44 ± 11 | 0 | 73 ± 5 |  |  |
| O=C(O)c1ccccc1Nc1cccc(C(F)(F)F)c1 [Flufenamic acid] |  |  |  |  |  |  |  | 80 ± 31 | 15 ± 14 |
